Results from PMC3641313 (Korean Journal of Pediatrics, 2013).
Entries after “also recorded” stand apart in the source; their conditions may differ. Where two headings read alike, the source gives them in different places.

Tested on: viral NA of influenza A/H1N1
Type: biochemical, influenza A/H1N1 virus

SMILES | sensitivity or resistance of isolates by IC50 criteria (A/H1N1, first study period, both groups, […]) | sensitivity or resistance of isolates by IC50 criteria (A/H1N1, second study period, both groups, […]) | resistance of influenza A/H1N1 isolates | sensitivity or resistance of isolates by IC50 criteria
CCOC(=O)C1=C[C@@H](OC(CC)CC)[C@H](NC(C)=O)[C@@H](N)C1 [Oseltamivir] | sensitivity | high-level drug resistance |  | 
CC(=O)N[C@H]1[C@H]([C@H](O)[C@H](O)CO)OC(C(=O)O)=C[C@@H]1N=C(N)N [Zanamivir] |  |  | no zanamivir resistance | sensitivity; also recorded: sensitive
